Consider 3 compounds from patent EP4711361A1, “NITROGEN-CONTAINING HETEROCYCLIC COMPOUND AND USE THEREOF” (Jiangsu Deyuan Pharmaceutical Co.,Ltd., priority 2023, dated 2024).

The target of one data set is T1, human CYP11B2 (Homo sapiens, UniProt P19099).
T1 construct: expressed in transfected cells; host or cells: human renal leiomyoma G402 cells (monoclonal)
T1 sequence (P19099 25-503): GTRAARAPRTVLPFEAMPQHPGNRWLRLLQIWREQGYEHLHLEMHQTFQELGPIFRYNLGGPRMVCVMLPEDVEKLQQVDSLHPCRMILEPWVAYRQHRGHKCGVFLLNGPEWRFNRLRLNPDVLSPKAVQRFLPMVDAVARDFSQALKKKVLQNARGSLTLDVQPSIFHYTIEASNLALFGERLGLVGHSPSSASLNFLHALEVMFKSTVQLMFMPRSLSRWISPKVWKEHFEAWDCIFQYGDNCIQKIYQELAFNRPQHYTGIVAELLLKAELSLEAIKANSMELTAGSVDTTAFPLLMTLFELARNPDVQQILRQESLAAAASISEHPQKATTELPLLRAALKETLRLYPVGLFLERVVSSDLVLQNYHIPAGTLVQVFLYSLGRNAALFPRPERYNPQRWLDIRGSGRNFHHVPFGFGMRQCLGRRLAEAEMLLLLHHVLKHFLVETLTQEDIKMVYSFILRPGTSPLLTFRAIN
Put plainly: In vitro activity assay of monoclonal cells overexpressing human CYP11B2. The format is cell-based. The following applies: G402 cells overexpressing human CYP11B2; 1 µM 11-deoxycorticosterone, 16 hours; aldosterone by LC-MS/MS. The method, then:
The human renal leiomyoma G402 cell line overexpressing human CYP11B2 was selected to serve as a compound activity screening system. Table 1: Cell and reagent information
2) Compound details: The test compound was prepared as a 10 µM working concentration using DMSO. 3) Experimental procedure
Day 1: Cells were digested, and human renal leiomyoma G402 cells overexpressing human CYP11B2 were resuspended to 1×10^5 cells/mL, with 100 µL seeded into a 96-well plate.
(§1) Day 3: The cell supernatant was collected and added to 200 µL of a methanol solution containing internal standards (internal standards: 35 ng/mL ketoprofen or 7.5 ng/mL carbamazepine or 5 ng/mL diphenhydramine or 10 ng/mL tolbutamide). The mixture was vortexed and centrifuged (4000×g, 4°C, 5 minutes). Then, 100 µL of the supernatant was taken and mixed with 100 µL of pure water.
Ratio = Aldosterone peak area/Internal standard peak area [formula] Control activity% = (Ratiotestcompound/RatioDMSO) × 100% [formula]
(§2) "Ratio test compound" represents the Ratio values at different concentrations of the test compound.
(§3) "Ratio DMSO" represents the Ratio value without the addition of the test compound. • X = Log (compound concentration) • Y = Control activity%
The IC50 of the test compound was determined by fitting to a nonlinear regression equation using XLfit 5.5.0. Table 3: Results for in vitro activity assay of monoclonal cells overexpressing human CYP11B2

Another data set addresses T2, human CYP11B1 (Homo sapiens, UniProt P15538).
T2 construct: expressed in transfected cells; host or cells: human renal leiomyoma G402 cells (monoclonal)
T2 sequence (P15538 25-503): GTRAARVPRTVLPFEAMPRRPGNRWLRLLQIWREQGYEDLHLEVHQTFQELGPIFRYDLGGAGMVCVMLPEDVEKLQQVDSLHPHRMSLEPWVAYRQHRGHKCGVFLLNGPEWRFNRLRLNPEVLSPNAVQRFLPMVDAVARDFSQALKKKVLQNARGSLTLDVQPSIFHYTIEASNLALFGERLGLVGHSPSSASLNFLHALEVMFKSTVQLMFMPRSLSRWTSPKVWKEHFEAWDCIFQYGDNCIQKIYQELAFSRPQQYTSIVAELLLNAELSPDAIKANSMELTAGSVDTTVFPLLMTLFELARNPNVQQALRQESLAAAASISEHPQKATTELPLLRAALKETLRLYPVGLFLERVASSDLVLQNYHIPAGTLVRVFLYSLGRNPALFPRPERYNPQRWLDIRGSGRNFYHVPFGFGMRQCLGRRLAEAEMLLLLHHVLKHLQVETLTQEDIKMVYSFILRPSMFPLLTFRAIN
Put plainly: In vitro activity assay of monoclonal cells overexpressing human CYP11B1. Type of data set: cell-based. Particulars: G402 cells overexpressing human CYP11B1; 1 µM 11-deoxycortisol, 16 hours; cortisol by LC-MS/MS. On the procedure: The human renal leiomyoma G402 cell line overexpressing human CYP11B1 was selected to serve as a compound selectivity screening system.
Day 1: Cells were digested, and human renal leiomyoma G402 cells overexpressing CYP11B1 were resuspended to 1×10^5 cells/mL, with 100 µL seeded into a 96-well plate.
as §1
Ratio = Cortisol peak area/Internal standard peak area [formula] Control activity% = (Ratiotestcompound/RatioDMSO) × 100% [formula]
as §2, §3
The IC50 of the test compound was determined by fitting to a nonlinear regression equation using XLfit 5.5.0. Table 4: Results for in vitro activity assay of monoclonal cells overexpressing human CYP11B1

The target in another data set is T3, CYP1A2 (Homo sapiens, UniProt P05177).
T3 construct: Mixed human liver microsomes (HLM) were purchased from Corning Inc; tissue Corning Inc; host or cells: pooled (mixed) human liver microsomes
T3 sequence (P05177 whole entry): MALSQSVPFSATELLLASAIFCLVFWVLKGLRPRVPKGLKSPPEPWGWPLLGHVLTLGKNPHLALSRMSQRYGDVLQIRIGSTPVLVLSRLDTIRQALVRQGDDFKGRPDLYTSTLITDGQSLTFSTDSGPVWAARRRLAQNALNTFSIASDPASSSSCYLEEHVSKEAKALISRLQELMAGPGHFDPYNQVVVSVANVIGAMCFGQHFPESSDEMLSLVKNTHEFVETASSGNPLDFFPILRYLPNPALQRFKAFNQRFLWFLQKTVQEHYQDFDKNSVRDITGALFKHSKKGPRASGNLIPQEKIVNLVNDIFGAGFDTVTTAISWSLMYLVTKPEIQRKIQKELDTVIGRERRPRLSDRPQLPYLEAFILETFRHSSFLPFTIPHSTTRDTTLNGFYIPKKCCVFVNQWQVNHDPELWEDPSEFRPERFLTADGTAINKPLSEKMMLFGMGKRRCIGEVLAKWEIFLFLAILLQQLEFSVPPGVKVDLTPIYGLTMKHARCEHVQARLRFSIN
Put plainly: Human liver microsome CYP inhibition assay, CYP1A2. Type of data set: in vitro ADME. On the procedure: (§4) Experimental objective: To evaluate the inhibitory activity of the test substance on human liver microsomal cytochrome P450 isoenzymes (CYP1A2, CYP2C9, CYP2C19, CYP2D6, CYP3A4) using a 5-in-1 probe substrate for CYP isoenzymes.
(§5) Mixed human liver microsomes (HLM) were purchased from Corning Inc. (Steuben, New York, USA) and stored at temperatures below -70°C prior to use.
(§6) The working solution of the test substance, which had been diluted to a series of concentrations, was added to an incubation system containing human liver microsomes, probe substrates, and auxiliary factors of the circulatory system. A control containing solvent but no test substance served as an enzyme activity control (100%). The concentration of metabolites produced from probe substrates in the samples was determined using Liquid Chromatography-Tandem Mass Spectrometry (LC-MS/MS) method. Non-linear regression analysis of the average percentage activity of the test substance against its concentration was conducted using SigmaPlot (V.11). The IC50 values were calculated using a three-parameter or four-parameter inverse log equation. Table 10: Cytochrome P450 isoenzyme half maximal inhibitory concentration IC50 (µM)
A general note: Liver microsomes are vesicles of endoplasmic reticulum, rich in cytochrome P450 enzymes.

The target in the next data set is T4, CYP2C9 (Homo sapiens, UniProt P11712).
T4 construct: Mixed human liver microsomes (HLM) were purchased from Corning Inc; tissue Corning Inc; host or cells: pooled (mixed) human liver microsomes
T4 sequence (P11712 whole entry): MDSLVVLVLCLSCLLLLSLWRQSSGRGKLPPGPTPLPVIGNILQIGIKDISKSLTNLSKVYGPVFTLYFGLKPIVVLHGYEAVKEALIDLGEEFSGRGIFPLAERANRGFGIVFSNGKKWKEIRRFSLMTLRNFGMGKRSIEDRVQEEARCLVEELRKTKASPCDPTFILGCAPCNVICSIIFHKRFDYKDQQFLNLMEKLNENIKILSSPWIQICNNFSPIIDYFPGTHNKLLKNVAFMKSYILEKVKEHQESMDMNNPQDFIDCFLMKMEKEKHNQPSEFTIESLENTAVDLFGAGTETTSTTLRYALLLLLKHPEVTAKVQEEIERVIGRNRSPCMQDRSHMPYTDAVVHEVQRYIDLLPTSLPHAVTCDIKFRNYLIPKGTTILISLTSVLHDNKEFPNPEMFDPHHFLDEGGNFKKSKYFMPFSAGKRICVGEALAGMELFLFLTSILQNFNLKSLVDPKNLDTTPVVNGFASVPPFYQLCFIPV
Put plainly: Human liver microsome CYP inhibition assay, CYP2C9. The format is in vitro ADME. On the procedure:
as §4, §5, §6

For the next data set, the target named is T5, CYP2C19 (Homo sapiens, UniProt P33261).
T5 construct: Mixed human liver microsomes (HLM) were purchased from Corning Inc; tissue Corning Inc; host or cells: pooled (mixed) human liver microsomes
T5 sequence (P33261 whole entry): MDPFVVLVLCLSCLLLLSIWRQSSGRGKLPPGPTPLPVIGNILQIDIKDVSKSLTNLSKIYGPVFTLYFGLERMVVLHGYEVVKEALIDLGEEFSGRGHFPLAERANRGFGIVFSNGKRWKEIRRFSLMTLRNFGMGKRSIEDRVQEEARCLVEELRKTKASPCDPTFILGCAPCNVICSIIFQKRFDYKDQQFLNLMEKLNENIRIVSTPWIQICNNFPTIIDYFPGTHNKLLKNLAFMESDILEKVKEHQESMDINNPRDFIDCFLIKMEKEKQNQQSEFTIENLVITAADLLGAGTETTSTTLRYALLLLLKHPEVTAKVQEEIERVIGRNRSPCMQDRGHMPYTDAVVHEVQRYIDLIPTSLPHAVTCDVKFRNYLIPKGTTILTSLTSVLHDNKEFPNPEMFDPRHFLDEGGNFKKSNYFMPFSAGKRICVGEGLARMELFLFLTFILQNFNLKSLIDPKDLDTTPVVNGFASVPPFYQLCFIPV
Put plainly: Human liver microsome CYP inhibition assay, CYP2C19. The format is in vitro ADME. On the procedure: as §4, §5, §6

The next data set has as its target T6, CYP2D6 (Homo sapiens, UniProt P10635).
T6 construct: Mixed human liver microsomes (HLM) were purchased from Corning Inc; tissue Corning Inc; host or cells: pooled (mixed) human liver microsomes
Put plainly: Human liver microsome CYP inhibition assay, CYP2D6. The format is in vitro ADME. On the procedure:
as §4, §5, §6

Another data set concerns the target T7, CYP3A4 (Homo sapiens, UniProt P08684).
T7 construct: Mixed human liver microsomes (HLM) were purchased from Corning Inc; tissue Corning Inc; host or cells: pooled (mixed) human liver microsomes
Put plainly: Human liver microsome CYP inhibition assay, CYP3A4. Type of data set: in vitro ADME. The method, then:
as §4, §5, §6

The next data set can be described thus: in vivo. The following applies: rat, po, 2 mg/kg.
The nature of data set [1]: in vitro. The following applies: rat, plasma.
The nature of data set [2]: in vitro. Particulars: cynomolgus monkey, plasma.
Data set [3] can be described thus: in vitro. The following applies: human, plasma.

Molecules are shown by their SMILES. Read-outs that look alike come from different tables or passages of the source.

As usually defined, the AUC(0-t) is the area under the concentration-time curve up to a stated or last time point. Low values mean less exposure, high ones more exposure. What is called Cmax is the peak of the concentration-time curve. In general, half-life refers to the time in which the quantity being followed falls by half. The fraction unbound is free concentration divided by total concentration. High values mean weak binding, low ones extensive binding.

T6 sequence (P10635 whole entry): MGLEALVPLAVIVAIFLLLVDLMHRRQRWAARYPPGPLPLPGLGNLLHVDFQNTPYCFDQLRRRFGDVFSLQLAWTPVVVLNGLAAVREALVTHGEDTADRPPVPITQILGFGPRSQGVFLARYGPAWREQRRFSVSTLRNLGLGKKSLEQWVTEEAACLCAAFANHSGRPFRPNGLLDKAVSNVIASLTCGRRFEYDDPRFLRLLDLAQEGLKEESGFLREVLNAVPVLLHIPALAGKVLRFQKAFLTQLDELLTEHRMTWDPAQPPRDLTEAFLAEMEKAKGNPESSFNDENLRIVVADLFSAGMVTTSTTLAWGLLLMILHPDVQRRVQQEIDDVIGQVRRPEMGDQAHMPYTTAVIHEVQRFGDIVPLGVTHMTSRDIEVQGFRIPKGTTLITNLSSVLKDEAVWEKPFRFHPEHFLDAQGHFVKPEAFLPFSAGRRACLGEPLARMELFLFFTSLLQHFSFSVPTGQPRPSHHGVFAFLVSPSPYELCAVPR
T7 sequence (P08684 whole entry): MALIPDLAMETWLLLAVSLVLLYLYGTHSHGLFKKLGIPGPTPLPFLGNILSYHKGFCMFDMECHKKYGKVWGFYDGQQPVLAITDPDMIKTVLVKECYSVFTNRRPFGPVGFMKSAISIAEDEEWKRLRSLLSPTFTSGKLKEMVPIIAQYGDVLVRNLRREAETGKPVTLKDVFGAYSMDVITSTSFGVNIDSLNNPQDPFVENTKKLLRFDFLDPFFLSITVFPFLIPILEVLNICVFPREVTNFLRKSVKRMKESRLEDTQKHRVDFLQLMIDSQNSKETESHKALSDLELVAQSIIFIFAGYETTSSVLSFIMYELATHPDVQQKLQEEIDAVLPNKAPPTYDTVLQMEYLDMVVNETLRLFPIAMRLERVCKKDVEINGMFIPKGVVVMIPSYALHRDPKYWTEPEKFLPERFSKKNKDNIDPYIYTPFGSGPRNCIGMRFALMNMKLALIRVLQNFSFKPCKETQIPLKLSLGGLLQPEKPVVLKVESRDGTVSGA

As for `CCC(=O)N[C@@H]1CCCc2c(-c3ccc4c(ccc(=O)n4C)c3)cncc21` (single isomer, unassigned) [Compound 001], the IC50 against human CYP11B2 was 12 nM; against human CYP11B1 it was 2470 nM; at CYP1A2 (mixed human liver microsomes, 5-in-1 probe substrate, read-out: Cytochrome P450 isoenzyme half maximal inhibitory concentration IC50 (µM) CYP1A2), greater than 50 µM; at CYP2C9 (mixed human liver microsomes, 5-in-1 probe substrate, read-out: Cytochrome P450 isoenzyme half maximal inhibitory concentration IC50 (µM) CYP2C9), greater than 50 µM; at CYP2C19 (mixed human liver microsomes, 5-in-1 probe substrate, read-out: Cytochrome P450 isoenzyme half maximal inhibitory concentration IC50 (µM) CYP2C19) it was greater than 50 µM; at CYP2D6 (mixed human liver microsomes, 5-in-1 probe substrate, read-out: Cytochrome P450 isoenzyme half maximal inhibitory concentration IC50 (µM) CYP2D6), greater than 50 µM. Further, on CYP3A4 (mixed human liver microsomes, 5-in-1 probe substrate, read-out: Cytochrome P450 isoenzyme half maximal inhibitory concentration IC50 (µM) CYP3A4), the IC50 is greater than 50 µM.
For `CCC(=O)NC1CCCc2c(-c3cc4c(s3)N(C)C(=O)CC4)cncc21` (single isomer, unassigned) [Compound 017], the IC50 against human CYP11B2 is 2.09 nM; against human CYP11B1 it was 322 nM; against CYP1A2 it was greater than 50 µM; against CYP2C9, 45.1 µM; at CYP2C19, greater than 50 µM; against CYP2D6, greater than 50 µM. The IC50 on CYP3A4 is greater than 50 µM. Besides, the area under the curve AUC(0-t) at 24 h in “in vivo” is 8.13 µM·h. The peak level in the data set “in vivo” (Cmax) was 4.17 µM. Further, the bioavailability in the data set “in vivo” amounted to 115%. The half-life in the data set “in vivo” is 80.4 min. Moreover, the fraction unbound at 4 h, 2 µM in the data set “in vitro [1]” is 0.051; in “in vitro [2]” it was 0.219; in the data set “in vitro [3]”, 0.173.
Turning to `CCC(=O)NC1CCCc2c(-c3cc4ccc(=O)n(C)c4s3)cncc21` (single isomer, unassigned) [Compound 023], the IC50 against human CYP11B2 is 12.5 nM; against human CYP11B1, 1740 nM; against CYP1A2, greater than 50 µM; against CYP2C9 it was greater than 50 µM; at CYP2C19, greater than 50 µM; against CYP2D6, greater than 50 µM. The IC50 on CYP3A4 is greater than 50 µM. Further, in the data set “in vivo”, the AUC(0-t) at 24 h came to 44.2 µM·h. The same compound gave a Cmax in the data set “in vivo” of 6.92 µM. For the same compound, in “in vivo”, the bioavailability is 109%. The compound also showed a half-life in the data set “in vivo” of 216 min. For the same compound, the fraction unbound at 4 h, 2 µM in “in vitro [1]” is 0.096; in the data set “in vitro [2]”, 0.31; in the data set “in vitro [3]” it was 0.304.
